{
  "source": "patent US20130345215A1",
  "about": "“PYRAZOLOPYRIMIDONE AND PYRAZOLOPYRIDONE INHIBITORS OF TANKYRASE” (Genentech, Inc., priority 2012, published 2013)",
  "data": [
    {"tested_on": "Wnt stimulated TCF transcriptional activity, HEK293-TS 112 TCF reporter cell line", "assay": "Tankyrase 1 Assay (Example 119): Wnt3A-stimulated TOPbrite TCF luciferase reporter", "format": "cell-based", "settings": "Compounds I-59 to I-144, procedure in Example 119 (0.5 ug/mL Wnt3A, 16 hours); read-out: TNKS1 (IC50)", "description": "Inhibition of the Wnt stimulated TCF transcriptional activity by tankyrase inhibitors was determined utilizing a HEK293-TS 112 TCF reporter cell line. A Wnt-responsive luciferase reporter named TOPbrite was constructed by cloning the enhancer element of Super8xTOPFlash containing eight TCF/LEF binding sites into the pGL4.28 vector (Promega) upstream of the minimal promoter element, and selecting for hygromycin B resistance (50 μg/ml). Cells were seeded into 384-well plates in the presence of 0.5 ug/mL of Wnt3A at a density of 20,000 cells per well in 25 ul of F:12 DMEM media supplemented with 10% FBS and 2 mM Glutamax. Cells seeded without the addition of Wnt3A were used as background signal. Compounds of various concentrations were added to cells and incubated at 37 degrees with 5% CO2 for 16 hours. The assay was terminated with the addition of Promega Dual Glo kit per manufacturer's instructions. A ratio of TOPbrite Firefly Luciferase and SV40 Renillla Luciferase was calculated and the background from the neutral wells was subtracted yielding the final normalized measurement of TCF transcriptional activity. Compound IC50s were determined by four-parameter curve fitting using GeneData software.", "units": {"IC50": "nM"}, "values": [
      {"smiles": "Cn1ncc2c(=O)[nH]c(N3CCC(Cc4ccncc4)C3)nc21", "note": "(centres unmarked) [Compound I-138, 1-methyl-6-[3-(4-pyridylmethyl)pyrrolidin-1-yl]-5H-pyrazolo[3 4-d]pyrimidin-4-one]", "IC50": 536},
      {"smiles": "Cn1ncc2c(=O)[nH]c(N3CCC(S(=O)(=O)CC4CCCCC4)CC3)nc21", "note": "[Compound I-135, 6-[4-(cyclohexylmethylsulfonyl)-1-piperidyl]-1-methyl-5H-pyrazolo[3 4-d]pyrimidin-4-one]", "IC50": 406},
      {"smiles": "Cn1ncc2c(=O)[nH]c(N3CCC(c4ccncc4)CC3)nc21", "note": "[Compound I-109, 1-methyl-6-[4-(4-pyridyl)-1-piperidyl)-5H-pyrazolo[3 4-d]pyrimidin-4-one]", "IC50": 80.6},
      {"smiles": "CC(C)n1ccc(C2(C)CCN(c3nc4c(cnn4C)c(=O)[nH]3)CC2)n1", "note": "[Compound I-119, 6-[4-(1-isopropylpyrazol-3-yl)-4-methyl-1-piperidyl]-1-methyl-5H-pyrazolo[3 4-d]pyrimidin-4-one]", "IC50": 124},
      {"smiles": "Cn1ncc2c(=O)[nH]c(-c3ccc(S(=O)(=O)CC4CCCCC4)cc3)nc21", "note": "[Compound I-108, 6-[4-(cyclohexylmethylsulfonyl)phenyl]-1-methyl-5H-pyrazolo[3 4-d]pyrimidin-4-one]", "IC50": 68.4},
      {"smiles": "Cn1ncc2c(=O)[nH]c(N3CCC(Cc4cccnc4)C3)nc21", "note": "(centres unmarked) [Compound I-137, 1-methyl-6-[3-(3-pyridylmethyl)pyrrolidin-1-yl]-5H-pyrazolo[3 4-d]pyrimidin-4-one]", "IC50": 490},
      {"smiles": "Cn1ncc2c(=O)[nH]c(N3CCN([C@H]4CC[C@H](O)CC4)CC3)nc21", "note": "[Compound I-120, 6-[4-(4-hydroxycyclohexyl)piperazin-1-yl]-1-methyl-5H-pyrazolo[3 4-d]pyrimidin-4-one]", "IC50": 153},
      {"smiles": "CCCn1ccc(C2(C)CCN(c3nc4c(cnn4C)c(=O)[nH]3)CC2)n1", "note": "[Compound I-98, 1-methyl-6-[4-methyl-4-(1-propylpyrazol-3-yl)-1-piperidyl]-5H-pyrazolo[3 4-d]pyrimidin-4-one]", "IC50": 37.4},
      {"smiles": "Cn1ncc2c(=O)[nH]c(N3CCC(Cc4ncccn4)C3)nc21", "note": "(centres unmarked) [Compound I-133, 1-methyl-6-[3-(pyrimidin-2-ylmethyl)pyrrolidin-1-yl]-5H-pyrazolo[3 4-d]pyrimidin-4-one]", "IC50": 337},
      {"smiles": "Cn1cncc1C1CCN(c2nc3c(cnn3C)c(=O)[nH]2)C1", "note": "(centres unmarked) [Compound I-114, 1-methyl-6-[3-(3-methylimidazol-4-yl)pyrrolidin-1-yl]-5H-pyrazolo[3 4-d]pyrimidin-4-one]", "IC50": 90.3},
      {"smiles": "Cn1ncc2c(=O)[nH]c(N3CCN(C4CCN(C(=O)OC(C)(C)C)CC4)CC3)nc21", "note": "[Compound I-131, tert-butyl 4-[4-(1-methyl-4-oxo-5H-pyrazolo[3 4-d]pyrimidin-6-yl)piperazin-1-yl]piperidine-1-carboxylate]", "IC50": 317},
      {"smiles": "Cn1ncc2c(=O)[nH]c(N3CCN(c4c(F)cc(OCCN5CCCCC5)cc4F)CC3)nc21", "note": "[Compound I-62, 6-{4-[2,6-Difluoro-4-(2-piperidin-1-yl-ethoxy)-phenyl]-piperazin-1-yl}-1-methyl-1,5-dihydro-pyrazolo[3,4-d]pyrimidin-4-one]", "IC50": 5},
      {"smiles": "Cn1ncc2c(=O)[nH]c(N3CCN(c4c(F)cc(OC5COC5)cc4F)CC3)nc21", "note": "[Compound I-85, 6-[4-[2 6-difluoro-4-(oxetan-3-yloxy)phenyl]piperazin-1-yl]-1-methyl-5H-pyrazolo[3 4-d]pyrimidin-4-one]", "IC50": 17.1},
      {"smiles": "Cn1ncc2c(=O)[nH]c(N3CCN(c4c(F)cc(OCCO)cc4F)CC3)nc21", "note": "[Compound I-78, 6-[4-[2 6-difluoro-4-(2-hydroxyethoxy)phenyl]piperazin-1-yl]-1-methyl-5H-pyrazolo[3 4-d]pyrimidin-4-one]", "IC50": 12},
      {"smiles": "Cn1cnnc1C1CCN(c2nc3c(cnn3C)c(=O)[nH]2)CC1", "note": "[Compound I-122, 1-methyl-6-[4-(4-methyl-1 2 4-triazol-3-yl)-1-piperidyl]-5H-pyrazolo[3 4-d]pyrimidin-4-one]", "IC50": 163},
      {"smiles": "Cn1ncc2c(=O)[nH]c(-c3ccc(S(C)(=O)=O)cc3)nc21", "note": "[Compound I-102, 1-methyl-6-(4-methylsulfonylphenyl)-5H-pyrazolo[3 4-d]pyrimidin-4-one]", "IC50": 47.9},
      {"smiles": "Cn1ncc2c(=O)[nH]c(N3CCC(n4cccn4)CC3)nc21", "note": "[Compound I-112, 1-methyl-6-(4-pyrazol-1-yl-1-piperidyl)-5H-pyrazolo[3 4-d]pyrimidin-4-one]", "IC50": 88.3},
      {"smiles": "COCCO[C@H]1CC[C@H](N2CCN(c3nc4c(cnn4C)c(=O)[nH]3)CC2)CC1", "note": "[Compound I-121, 6-[4-[4-(2-methoxyethoxy)cyclohexyl]piperazin-1-yl]-1-methyl-5H-pyrazolo[3 4-d]pyrimidin-4-one]", "IC50": 159},
      {"smiles": "COCCO[C@H]1CC[C@@H](N2CCN(c3nc4c(cnn4C)c(=O)[nH]3)CC2)CC1", "note": "[Compound I-136, 6-[4-[4-(2-methoxyethoxy)cyclohexyl]piperazin-1-yl]-1-methyl-5H-pyrazolo[3 4-d]pyrimidin-4-one]", "IC50": 468},
      {"smiles": "CCS(=O)(=O)c1ccc(-c2nc3c(cnn3C)c(=O)[nH]2)cc1", "note": "[Compound I-107, 6-(4-ethylsulfonylphenyl)-1-methyl-5H-pyrazolo[3 4-d]pyrimidin-4-one]", "IC50": 68.1},
      {"smiles": "CN1CCN(Cc2cc(F)c(N3CCN(c4nc5c(cnn5C)c(=O)[nH]4)CC3)c(F)c2)CC1", "note": "[Compound I-60, 6-[4-[2 6-difluoro-4-[(4-methylpiperazin-1-yl)methyl]phenyl]piperazin-1-yl]-1-methyl-5H-pyrazolo[3 4-d]pyrimidin-4-one]", "IC50": 3.8},
      {"smiles": "Cn1nccc1CN1CCN(c2nc3c(cnn3C)c(=O)[nH]2)CC1", "note": "[Compound I-132, 1-methyl-6-[4-((2-methylpyrazol-3-yl)methyl]piperazin-1-yl]-5H-pyrazolo[3 4-d]pyrimidin-4-one]", "IC50": 329},
      {"smiles": "COCCOc1cc(F)c(N2CCN(c3nc4c(cnn4C4CCS(=O)(=O)CC4)c(=O)[nH]3)CC2)c(F)c1", "note": "[Compound I-128, 6-[4-[2 6-difluoro-4-(2-methoxyethoxy)phenyl]piperazin-1-yl]-1-(1 1-dioxothian-4-yl)-5H-pyrazolo[3 4-d]pyrimidin-4-one]", "IC50": 268},
      {"smiles": "Cn1ncc2c(=O)[nH]c(N3CCC(C)(c4cc[nH]n4)CC3)nc21", "note": "[Compound I-82, 1-methyl-6-[4-methyl-4-(1H-pyrazol-3-yl)-1-piperidyl]-5H-pyrazolo[3 4-d]pyrimidin-4-one]", "IC50": 15.1},
      {"smiles": "Cc1c[nH]nc1C1CCN(c2nc3c(cnn3C)c(=O)[nH]2)CC1", "note": "[Compound I-115, 1-methyl-6-[4-(4-methyl-1H-pyrazol-3-yl)-1-piperidyl]-5H-pyrazolo[3 4-d]pyrimidin-4-one]", "IC50": 107},
      {"smiles": "Cc1noc(C2(C)CCN(c3nc4c(cnn4C)c(=O)[nH]3)CC2)n1", "note": "[Compound I-91, 1-methyl-6-[4-methyl-4-(3-methyl-1 2 4-oxadiazol-5-yl)-1-piperidyl]-5H-pyrazolo[3 4-d]pyrimidin-4-one]", "IC50": 24.1},
      {"smiles": "COCCOc1cc(F)c(N2CCN(c3nc4c(cnn4CCCO)c(=O)[nH]3)CC2)c(F)c1", "note": "[Compound I-95, 6-[4-[2 6-difluoro-4-(2-methoxyethoxy)phenyl]piperazin-1-yl]-1-(3-hydroxypropyl)-5H-pyrazolo[3 4-d]pyrimidin-4-one]", "IC50": 27},
      {"smiles": "Cn1ncc2c(=O)[nH]c(N3CCN(c4c(F)cc(CO)cc4F)CC3)nc21", "note": "[Compound I-79, 6-[4-[2 6-difluoro-4-(hydroxymethyl)phenyl]piperazin-1-yl]-1-methyl-5H-pyrazolo[3 4-d]pyrimidin-4-one]", "IC50": 13.3},
      {"smiles": "Cn1ncc2c(=O)[nH]c(N3CCN(c4c(F)cc(CC(O)CO)cc4F)CC3)nc21", "note": "(centres unmarked) [Compound I-66, 6-[4-[4-(2 3-dihydroxypropyl)-2 6-difluoro-phenyl]piperazin-1-yl]-1-methyl-5H-pyrazolo[3 4-d]pyrimidin-4-one]", "IC50": 6.6},
      {"smiles": "Cn1cc(N2CCN(c3nc4c(cnn4C)c(=O)[nH]3)CC2)cn1", "note": "[Compound I-105, 1-methyl-6-[4-(1-methylpyrazol-4-yl)piperazin-1-yl]-5H-pyrazolo[3 4-d]pyrimidin-4-one]", "IC50": 63.9},
      {"smiles": "Cn1ncc2c(=O)[nH]c(N3CCN(c4c(F)cc(C(O)CO)cc4F)CC3)nc21", "note": "(centres unmarked) [Compound I-63, 6-[4-[4-(1 2-dihydroxyethyl)-2 6-difluoro-phenyl]piperazin-1-yl]-1-methyl-5H-pyrazolo[3 4-d]pyrimidin-4-one]", "IC50": 5.3},
      {"smiles": "Cn1ncc2c(=O)[nH]c(N3CCN(C4COC4)CC3)nc21", "note": "[Compound I-144, 1-methyl-6-[4-(oxetan-3-yl)piperazin-1-yl]-5H-pyrazolo[3 4-d]pyrimidin-4-one]", "IC50": 830},
      {"smiles": "COCCOc1cc(F)c(C2(C#N)CCN(c3nc4c(cnn4C)c(=O)[nH]3)CC2)c(F)c1", "note": "[Compound I-86, 4-[2 6-difluoro-4-(2-methoxyethoxy)phenyl]-1-(1-methyl-4-oxo-5H-pyrazolo[3 4-d]pyrimidin-6-yl)piperidine-4-carbonitrile]", "IC50": 18.5},
      {"smiles": "Cn1nccc1C1(C)CCN(c2nc3c(cnn3C)c(=O)[nH]2)CC1", "note": "[Compound I-96, 1-methyl-6-[4-methyl-4-(2-methylpyrazol-3-yl)-1-piperidyl)-5H-pyrazolo[3 4-d]pyrimidin-4-one]", "IC50": 28.4},
      {"smiles": "Cn1ncc2c(=O)[nH]c(N3CCN(C4CC5CCC4C5)CC3)nc21", "note": "(centres unmarked) [Compound I-103, 1-methyl-6-(4-norbornan-2-ylpiperazin-1-yl)-5H-pyrazolo[3 4-d]pyrimidin-4-one]", "IC50": 50.2}
    ]}
  ]
}
